Patent US20080234233A1, “MEDICAMENT FOR TREATMENT OF NEURODEGENERATIVE DISEASES” (INSTITUTE OF MEDICINAL MOLECULAR DESIGN INC., priority 2002, published 2008)

System: NF-κ B activation
Assay: Inhibitory activity of NF-κB activation, luciferase reporter assay under TNF-α stimulation in HepG2
Type: cell-based, human
Details: HepG2, TNF-α 40 ng/ml, 4 hours; for inhibition at 1 µg/mL / inhibition at 10 µg/mL: Homo sapiens, read-out: Inhibitory rate against NF-κB activation (%)
Procedure: Measurement of Inhibitory Activity of NF-κB activation
Using a transfection reagent (Effectene; QIAGEN), the human hepatoma cell strain HepG2 was transfected with a plasmid (pNF κ B-Luc Reporter Plasmid; […]) integrated with an oligonucleotide having five tandem copies of NF-κ B binding sequences([…]) on a upstream region of firefly luciferase gene(Luc) according to the QIAGEN's protocol, and the cells were incubated for 6 to 24 hours. After addition of TNF-α (40 ng/ml) in the presence or absence of a test compound, the cells were incubated for 4 hours, and intracellular luciferase activity was measured by using PicaGene LT (TOYO INK MFG Co., Ltd.) and a chemical luminescence measurement apparatus ([…]luor Plus; TECAN). The inhibitory ratio was measured as a ratio relative to the value of the luciferase activity in the absence of the test compound.

Inhibitory rate against NF-κB activation (%) (Drug concentration at 10 μg/mL) | SMILES | Inhibitory rate against NF-κB activation (%) (Drug concentration at 1 μg/mL) | inhibition at 1 µg/mL (Drug concentration at 1 μg/mL) [%] | inhibition at 10 µg/mL (Drug concentration at 10 μg/mL) [%]
92.3 | O=C(Nc1ccc(Cl)nc1)c1cc(Cl)ccc1O [compound 240] | 14.3 |  | 
 | O=C(Nc1cc(C(F)(F)F)cc(C(F)(F)F)c1)c1cc([N+](=O)[O-])ccc1O [compound 8, N-[3,5-bis(trifluoromethyl)phenyl]-2-hydroxy-5-nitrobenzamide] |  | 92 | 99.2
72.1 | O=C(O)Cc1sc(NC(=O)c2cc(Br)ccc2O)nc1-c1ccccc1 [compound 210] |  |  | 
96.4 | Cc1ccc(C(=O)C(C)(C)C)cc1NC(=O)c1cc(Cl)ccc1O [compound 166] | 94.1 |  | 
67.2 | Cc1nc(NC(=O)c2cc(Br)ccc2O)sc1C [compound 191] |  |  | 
93.4 | O=C(Nc1cc(F)ccc1F)c1cc(Cl)ccc1O [compound 179] | 92.5 |  | 
97.9 | CC(C)CCOc1ccc(OCCC(C)C)c(NC(=O)c2cc(Cl)ccc2O)c1 [compound 162] | 93.8 |  | 
95.7 | COc1ccc(OC)c(NC(=O)c2cc(Br)ccc2O)c1 [compound 142] | 32.4 |  | 
98.1 | COc1ccc(Oc2ccccc2)cc1NC(=O)c1cc(Cl)ccc1O [compound 171] | 90.6 |  | 
95.1 | O=C(Nc1cc(Cl)cc(Cl)c1)c1cc2ccccc2cc1O [compound 181] |  |  | 
88.7 | Cc1ccc(O)c(C(=O)Nc2cc(Cl)cc(Cl)c2)c1 [compound 131] | 49.1 |  | 
 | O=C(Nc1nc(-c2ccc(Cl)cc2Cl)cs1)c1cc(Cl)ccc1O [compound 255, 5-Chloro-2-hydroxy-N-[4-(2,4-dichlorophenyl)thiazol-2-yl]benzamide] |  | > 99.9 | 
97.8 | Cc1ccc(S(=O)(=O)c2ccc(Cl)cc2NC(=O)c2cc(Cl)ccc2O)cc1 [compound 168] | 46.7 |  | 
81.8 | O=C(Nc1nc(-c2ccccc2)c(-c2ccccc2)o1)c1cc(Br)ccc1O [compound 235] |  |  | 
96.3 | N#Cc1ccc(Oc2ccc(C(F)(F)F)cc2NC(=O)c2cc(Cl)ccc2O)cc1 [compound 252] | 93.9 |  | 
97.8 | O=C(Nc1cc(C(F)(F)F)cc(C(F)(F)F)c1)c1cc(-c2cccs2)ccc1O [compound 28] | 79.5 |  | 
 | CC(C)C(=O)c1ccc(O)c(C(=O)Nc2cc(C(F)(F)F)cc(C(F)(F)F)c2)c1 [compound 34, N-[3,5-Bis(trifluoromethyl)phenyl]-2-hydroxy-5-isobutyrylbenzamide] |  | 90.7 | 98.7

Inhibitory rate against NF-κB activation (%) (Drug concentration at 10 μg/mL) | SMILES | Inhibitory rate against NF-κB activation (%) (Drug concentration at 1 μg/mL) | inhibition at 1 µg/mL (Drug concentration at 1 μg/mL) [%] | inhibition at 10 µg/mL (Drug concentration at 10 μg/mL) [%]
 | O=C(Nc1nc(-c2cc(F)ccc2F)cs1)c1cc(Cl)ccc1O [compound 263, 5-Chloro-2-hydroxy-N-[4-(2,5-difluorophenyl)thiazol-2-yl]benzamide] |  | > 99.9 | 
 | COC(=O)c1cc(NC(=O)c2cc(Br)ccc2O)cc(C(=O)OC)c1 [compound 144, 5-bromo-2-hydroxy-N-[3,5-bis(methoxycarbonyl)phenyl]benzamide] |  |  | 56.4
93.7 | O=C(Nc1cc(F)cc(F)c1)c1cc(Cl)ccc1O [compound 180] | 90.7 |  | 
 | CN1CCN(c2sc(NC(=O)c3cc(Br)ccc3O)nc2C(C)(C)C)CC1 [compound 206, 5-Bromo-N-{4-[(1,1-dimethyl)ethyl]-5-(4-methylpiperazin-1-yl)thiazol-2-yl}-2-hydroxybenzamide] |  | 36.3 | 89.6
95.6 | O=C(Nc1cc([N+](=O)[O-])cc([N+](=O)[O-])c1)c1cc(Br)ccc1O [compound 133] | 91.0 |  | 
99.4 | Cc1ccc(O)c(C(=O)Nc2cc(C(F)(F)F)cc(C(F)(F)F)c2)c1 [compound 10] | 95.8 |  | 
 | CCOC(=O)c1sc(NC(=O)c2cc(Br)ccc2O)nc1-c1ccccc1 [compound 216, 2-(5-bromo-2-hydroxybenzoyl)amino-4-phenylthiazole-5-carboxylic acid ethyl ester] |  | 55.8 | 82.8
 | O=C(Nc1nnc(C(F)(F)F)s1)c1ccccc1O [compound 237, 2-Hydroxy-N-(5-trifluoromethyl-1,3,4-thiadiazol-2-yl)benzamide] |  |  | 81.9
95.7 | O=C(Nc1cc([N+](=O)[O-])ccc1Cl)c1cc(Cl)ccc1O [compound 156] | 93.8 |  | 
93.3 | N#Cc1ccc(Cl)cc1NC(=O)c1cc(Cl)ccc1O [compound 154] | 83.0 |  | 
 | CC(C)(C)c1ccc(O)c(C(=O)Nc2cc(C(F)(F)F)cc(C(F)(F)F)c2)c1 [compound 11, N-[3,5-Bis(trifluoromethyl)phenyl]-5-[(1,1-dimethyl)ethyl]-2-hydroxybenzamide] |  | 92.9 | 98.3
89.7 | COc1ccc(C)cc1NC(=O)c1cc(Cl)ccc1O [compound 178] |  |  | 
 | O=C(Nc1cc(C(F)(F)F)ccc1C(F)(F)F)c1cc(Cl)ccc1O [compound 81, N-[2,5-bis(trifluoromethyl)phenyl]-5-chloro-2-hydroxybenzamide] |  | 95 | 96.3
 | CCCCc1nc(NC(=O)c2cc(Br)ccc2O)sc1-c1ccccc1 [compound 198, 5-Bromo-N-(4-butyl-5-phenylthiazol-2-yl)-2-hydroxybenzamide] |  | 46.1 | 88.7
 | CC(C)c1cc(Br)cc(C(=O)Nc2cc(C(F)(F)F)cc(C(F)(F)F)c2)c1O [compound 257] | >99.9 |  | 
 | O=C(Nc1cc(C(F)(F)F)cc(C(F)(F)F)c1)c1cc(-c2ccccn2)ccc1O [compound 32, N-[3,5-Bis(trifluoromethyl)phenyl]-2-hydroxy-5-(pyridin-2-yl)benzamide] |  | 90.4 | 99

SMILES | Inhibitory rate against NF-κB activation (%) (Drug concentration at 10 μg/mL) | Inhibitory rate against NF-κB activation (%) (Drug concentration at 1 μg/mL) | inhibition at 1 µg/mL (Drug concentration at 1 μg/mL) [%] | inhibition at 10 µg/mL (Drug concentration at 10 μg/mL) [%]
O=C(Nc1cc(C(F)(F)F)ccc1Oc1ccc2ccccc2c1)c1cc(Cl)ccc1O [compound 110] | 98.7 | 96.5 |  | 
O=C(Nc1cc(C(F)(F)F)cc(C(F)(F)F)c1)c1ccc(F)cc1O [compound 250] | 95.4 | 94.2 |  | 
Cc1cc(Oc2ccc(C(F)(F)F)cc2NC(=O)c2cc(Cl)ccc2O)cc(C)c1Cl [compound 115] | 98.4 | 90.7 |  | 
Cc1ccc(O)c(C(=O)Nc2cc(C(F)(F)F)ccc2C)c1 [compound 102] | 98.3 | 89.3 |  | 
O=C(Nc1cc(C(F)(F)F)ccc1N1CCCCC1)c1cc(Cl)ccc1O [compound 116] | 97.3 | 90.0 |  | 
O=C(Nc1cc(C(F)(F)F)cc(C(F)(F)F)c1)c1cc(NC(=S)Nc2ccccc2)ccc1O [compound 47] | 97.2 | 51.8 |  | 
O=C(Nc1cc(C(F)(F)F)cc(C(F)(F)F)c1)c1cc2ccccc2cc1O [compound 72] | 95.0 | 94.6 |  | 
O=C(Nc1cc(C(F)(F)F)cc(C(F)(F)F)c1)c1cc(N=Nc2ccc(S(=O)(=O)Nc3ccccn3)cc2)ccc1O [compound 49] | 89.1 | 19.4 |  | 
COc1cc(NC(=O)c2cc(Br)ccc2O)cc(C(F)(F)F)c1 [compound 93] | 97.2 | 84.5 |  | 
Cc1ccc(O)c(C(=O)Nc2cc(C(F)(F)F)ccc2Cl)c1 [compound 100] | 95.1 | 85.6 |  | 
O=C(Nc1cc(C(F)(F)F)cc(C(F)(F)F)c1)c1nc2ccccc2nc1O [compound 80] | 73.0 | 46.3 |  | 
O=C(Nc1cc(C(F)(F)F)ccc1C(F)(F)F)c1cc(Br)ccc1O [compound 83] | 98.3 | 95.7 |  | 
O=C(Nc1cc(C(F)(F)F)ccc1[N+](=O)[O-])c1cc(Cl)ccc1O [compound 91] | 96.7 | 86.3 |  | 
O=C(Nc1cc(C(F)(F)F)ccc1N1CCC(C(F)(F)F)CC1)c1cc(Cl)ccc1O [compound 112] | 95.7 | 96.5 |  | 
O=C(Nc1cc(C(F)(F)F)cc(C(F)(F)F)c1)c1cc(S(=O)(=O)Nc2cc(C(F)(F)F)cc(C(F)(F)F)c2)ccc1O [compound 247] | >99.9 |  |  | 
CN(C)c1ccc(O)c(C(=O)Nc2cc(C(F)(F)F)cc(C(F)(F)F)c2)c1 [compound 44] | 67.5 |  |  | 
